In patent US20220363686A1 (AiCuris GmbH & Co. KG, priority 2018, published 2022):
pEC50, pIC50: −log10 of the molar value. Read-outs that look alike come from different tables or passages of the source.

How the values were obtained:
[1] = Cell viability assay (AlamarBlue); settings: human, HepAD38 cells
Experimental: Using the AlamarBlue viability assay cytotoxicity was evaluated in HepAD38 cells in the presence of 0.3 μg/ml tetracycline, which blocks the expression of the HBV genome. Assay condition and plate layout were in analogy to the anti-HBV assay, however other controls were used. On each assay plate six wells containing untreated HepAD38 cells were used as the 100% viability control, and six wells filled with assay medium only were used as 0% viability control. In addition, a geometric concentration series of cycloheximide starting at 60 μM final assay concentration was used as positive control in each experiment. After six days incubation period Alamar Blue Presto cell viability reagent (ThermoFisher, Dreieich) was added in 1/11 dilution to each well of the assay plate. After an incubation for 30 to 45 min at 37° C. the fluorescence signal, which is proportional to the number of living cells, was read using a Tecan Spectrafluor Plus plate reader with an excitation filter 550 nm and emission filter 595 nm, respectively. Data were normalized into percentages of the untreated control (100% viability) and assay medium (0% viability) before CC50 values were calculated using non-linear regression and the GraphPad Prism 6.0 (GraphPad Software, La Jolla, USA). Mean EC50 and CC50 values were used to calculate the selectivity index (SI=CC50/EC50) for each test compound.

[2] = target: HBV core protein (C-terminal truncated core protein containing 149 amino acids of the N-terminal assembly domain) (UniProt P03146); experiment: Biochemical capsid assembly assay (fluorescence quenching); parameters: rows headed: Assembly Activity; other: BODIPY-FL labelled core protein, assembly started with NaCl, read after 6 min; settings: read-out: Assembly Activity; BODIPY-FL labelled core protein, assembly started with NaCl, read after 6 min
Experimental: The screening for assembly effector activity was done based on a fluorescence quenching assay published by Zotnick et al. (2007). The C-terminal truncated core protein containing 149 amino acids of the N-terminal assembly domain fused to a unique cysteine residue at position 150 and was expressed in E. coli using the pET expression system (Merck Chemicals, Darmstadt). Purification of core dimer protein was performed using a sequence of size exclusion chromatography steps. In brief, the cell pellet from 1 L BL21 (DE3) Rosetta2 culture expressing the coding sequence of core protein cloned NdeI/XhoI into expression plasmid pET21b was treated for 1 h on ice with a native lysis buffer (Qproteome Bacterial Protein Prep Kit; Qiagen, Hilden). After a centrifugation step the supernatant was precipitated during 2 h stirring on ice with 0.23 g/ml of solid ammonium sulfate. Following further centrifugation the resulting pellet was resolved in buffer A (100 mM Tris, pH 7.5; 100 mM NaCl; 2 mM DTT) and was subsequently loaded onto a buffer A equilibrated CaptoCore 700 column (GE HealthCare, Frankfurt). The column flow through containing the assembled HBV capsid was dialyzed against buffer N (50 mM NaHCO3 pH 9.6; 5 mM DTT) before urea was added to a final concentration of 3M to dissociate the capsid into core dimers for 1.5 h on ice. The protein solution was then loaded onto a IL Sephacryl S300 column. After elution with buffer N core dimer containing fractions were identified by SDS-PAGE and subsequently pooled and dialyzed against 50 mM HEPES pH 7.5; 5 mM DTT. To improve the assembly capacity of the purified core dimers a second round of assembly and disassembly starting with the addition of 5 M NaCl and including the size exclusion chromatography steps described above was performed. From the last chromatography step core dimer containing fractions were pooled and stored in aliquots at concentrations between 1.5 to 2.0 mg/ml at −80° C.
Immediately before labelling the core protein was reduced by adding freshly prepared DTT in a final concentration of 20 mM. After 40 min incubation on ice storage buffer and DTT was removed using a Sephadex G-25 column (GE HealthCare, Frankfurt) and 50 mM HEPES, pH 7.5. For labelling 1.6 mg/ml core protein was incubated at 4° C. and darkness overnight with BODIPY-FL maleimide (Invitrogen, Karlsruhe) in a final concentration of 1 mM. After labelling the free dye was removed by an additional desalting step using a Sephadex G-25 column. Labelled core dimers were stored in aliquots at 4° C. In the dimeric state the fluorescence signal of the labelled core protein is high and is quenched during the assembly of the core dimers to high molecular capsid structures. The screening assay was performed in black 384 well microtiter plates in a total assay volume of 10 μl using 50 mM HEPES pH 7.5 and 1.0 to 2.0 μM labelled core protein. Each screening compound was added in 8 different concentrations using a 0.5 log-unit serial dilution starting at a final concentration of 100 μM, 31.6 μM or 10 μM, In any case the DMSO concentration over the entire microtiter plate was 0.5%. The assembly reaction was started by the injection of NaCl to a final concentration of […] which induces the assembly process to approximately 25% of the maximal quenched signal. 6 min after starting the reaction the fluorescence signal was measured using a Clariostar plate reader (BMG Labtech, Ortenberg) with an excitation of 477 nm and an emission of 525 nm. As 100% and 0% assembly control HEPES buffer containing 2.5 M and 0 M NaCl was used. Experiments were performed thrice in triplicates. EC50 values were calculated by non-linear regression analysis using the Graph Pad Prism 6 software (GraphPad Software, La Jolla, USA).

[3] = test system: HBV; experiment: Determination of HBV DNA from the supernatants of HepAD38 cells (anti-HBV activity); assay type: cell-based, hepatitis B virus; settings: Hepatitis B virus, HePAD38, 144 h, HBV DNA in HepAD38 supernatant, day 6, qPCR, read-out: Cell Activity
Experimental: The anti-HBV activity was analysed in the stable transfected cell line HepAD38, which has been described to secrete high levels of HBV virion particles (Ladner et al., 1997). In brief, HepAD38 cells were cultured at 37° C. at 5% CO2 and 95% humidity in 200 μl maintenance medium, which was Dulbecco's modified Eagle's medium/Nutrient Mixture F-12 (Gibco, Karlsruhe), 10% fetal bovine serum (PAN Biotech Aidenbach) supplemented with 50 μg/ml penicillin/streptomycin (Gibco, Karlsruhe), 2 mM L-glutamine (PAN Biotech, Aidenbach), 400 μg/ml G418 (AppliChem, Darmstadt) and 0.3 μg/ml tetracycline. Cells were subcultured once a week in a 1:5 ratio, but were usually not passaged more than ten times. For the assay 60,000 cells were seeded in maintenance medium without any tetracycline into each well of a 96-well plate and treated with serial half-log dilutions of test compound. To minimize edge effects the outer 36 wells of the plate were not used but were filled with assay medium. On each assay plate six wells for the virus control (untreated HepAD38 cells) and six wells for the cell control (HepAD38 cells treated with 0.3 μg/ml tetracycline) were allocated, respectively. In addition, one plate set with reference inhibitors like BAY 41-4109, entecavir, and lamivudine instead of screening compounds were prepared in each experiment. In general, experiments were performed thrice in triplicates. At day 6 HBV DNA from 100 μl filtrated cell culture supernatant (AcroPrep Advance 96 Filter Plate, […] Supor membran, PALL GmbH, Dreieich) was automatically purified on the MagNa Pure LC instrument using the MagNA Pure 96 DNA and Viral NA Small Volume Kit (Roche Diagnostics, Mannheim) according to the instructions of the manufacturer. EC50 values were calculated from relative copy numbers of HBV DNA In brief, 5 μl of the 100 μl eluate containing HBV DNA were subjected to PCR LC480 Probes Master Kit (Roche) together with 1 μM antisense primer […], 0.5 μM sense primer […], 0.3 μM hybprobes […]-FL and LC640-[…]-PH (TIBMolBiol, Berlin) to a final volume of 12.5 μl. The PCR was performed on the Light Cycler 480 real time system (Roche Diagnostics, Mannheim) using the following protocol: Pre-incubation for 1 min at 95° C., amplification: 40 cycles×(10 sec at 95° C., 50 sec at 60° C., 1 sec at 70° C.), cooling for 10 sec at 40° C. Viral load was quantitated against known standards using HBV plasmid DNA of pCH-9/3091 (Nassal et al., 1990, Cell 63: 1357-1363) and the LightCycler 480 SW 1.5 software (Roche Diagnostics, Mannheim) and ECso values were calculated using non-linear regression with GraphPad Prism 6 (GraphPad Software Inc., La Jolla, USA).

Chain of HBV core protein (C-terminal truncated core protein containing 149 amino acids of the N-terminal assembly domain) (P03146 whole entry, the tested form may be a part): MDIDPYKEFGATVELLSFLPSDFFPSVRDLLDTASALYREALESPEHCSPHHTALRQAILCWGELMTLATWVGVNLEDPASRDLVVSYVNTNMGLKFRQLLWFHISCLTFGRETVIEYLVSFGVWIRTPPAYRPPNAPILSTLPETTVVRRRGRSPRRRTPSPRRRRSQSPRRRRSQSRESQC

Row | SMILES | CC50 at 6 days [1] [µM] | pIC50 [2] | pEC50 [3] | pEC50 ([3]; printed as number instead of class symbol)
1 | CC(COC(F)F)NC(=O)c1cnn2c1CN(C(=O)c1cc3ccccc3[nH]1)CC2 (stereo not drawn) [Example 89, N-[1-(difluoromethoxy)propan-2-yl]-5-(1H-indole-2-carbonyl)-4H,5H,6H,7H-pyrazolo[1,5-a]pyrazine-3-carboxamide] | > 10 | > 5.30 | > 6.00 | –
2 | O=C(c1cc2ccccc2[nH]1)N1CCn2ncc(C(=O)N3CCC(F)(F)C34CC4)c2C1 [Example 56, 2-(3-{7,7-difluoro-4-azaspiro[2.4]heptane-4-carbonyl}-4H,5H,6H,7H-pyrazolo[1,5-a]pyrazine-5-carbonyl)-1H-indole] | > 10 | > 5.30 | > 6.00 | –
3 | CN(C(=O)c1cnn2c1CN(C(=O)c1cc3ccccc3[nH]1)CC2)C1(c2ccncc2)CC1 [Example 46, 5-(1H-indole-2-carbonyl)-N-methyl-N-[1-(pyridin-4-yl)cyclopropyl]-4H,5H,6H,7H-pyrazolo[1,5-a]pyrazine-3-carboxamide] | > 10 | > 5.30 | > 6.00 | –
4 | O=C(c1cc2ccccc2[nH]1)N1CCn2ncc(C(=O)N3CCC(OC(F)F)CC34CC4)c2C1 (stereo not drawn) [Example 59, 2-{3-[7-(difluoromethoxy)-4-azaspiro[2.5]octane-4-carbonyl]-4H,5H,6H,7H-pyrazolo[1,5-a]pyrazine-5-carbonyl}-1H-indole] | > 10 | > 5.30 | > 6.00 | –
5 | Cc1cc(F)cc2[nH]c(C(=O)N3CCn4ncc(C5CCC5)c4C3)cc12 [Example 4, 2-{3-cyclobutyl-4H,5H,6H,7H-pyrazolo[1,5-a]pyrazine-5-carbonyl}-6-fluoro-4-methyl-1H-indole] | > 10 | > 5.30 | > 6.00 | –
6 | CN(C(=O)c1cnn2c1CN(C(=O)c1cc3ccccc3[nH]1)CC2)C1(C)COC1 [Example 136, 5-(1H-indole-2-carbonyl)-N-methyl-N-(3-methyloxetan-3-yl)-4H,5H,6H,7H-pyrazolo[1,5-a]pyrazine-3-carboxamide] | > 10 | > 5.30 | 5.00 to 6.00 | –
7 | CN(CCOC(F)F)C(=O)c1cnn2c1CN(C(=O)c1cc3ccccc3[nH]1)CC2 [Example 62, N-[2-(difluoromethoxy)ethyl]-5-(1H-indole-2-carbonyl)-N-methyl-4H,5H,6H,7H-pyrazolo[1,5-a]pyrazine-3-carboxamide] | > 10 | > 5.30 | – | < 5.00
8 | O=C(c1cc2ccccc2[nH]1)N1CCn2ncc(S(=O)(=O)NCC3CCOC3)c2C1 (stereo not drawn) [Example 33, 5-(1H-indole-2-carbonyl)-N-[(oxolan-3-yl)methyl]-4H,5H,6H,7H-pyrazolo[1,5-a]pyrazine-3-sulfonamide] | > 10 | 5.00 to 5.30 | 5.00 to 6.00 | –
9 | O=C(c1cc2ccccc2[nH]1)N1CCn2ncc(S(=O)(=O)N3CCCC3)c2C1 [Example 39, 2-[3-(pyrrolidine-1-sulfonyl)-4H,5H,6H,7H-pyrazolo[1,5-a]pyrazine-5-carbonyl]-1H-indole] | > 10 | > 5.30 | > 6.00 | –
10 | CC1Cn2ncc(C(=O)N(C)C3CC3)c2CN1C(=O)c1cc2ccccc2[nH]1 (single isomer, unassigned) [Example 18, N-cyclopropyl-5-(1H-indole-2-carbonyl)-N,6-dimethyl-4H,5H,6H,7H-pyrazolo[1,5-a]pyrazine-3-carboxamide] | > 10 | > 4.00 | 5.00 to 6.00 | –
11 | CC(C)NS(=O)(=O)c1cnn2c1CN(C(=O)c1cc3ccccc3[nH]1)CC2 [Example 37, 5-(1H-indole-2-carbonyl)-N-(propan-2-yl)-4H,5H,6H,7H-pyrazolo[1,5-a]pyrazine-3-sulfonamide] | > 10 | > 5.30 | > 6.00 | –
12 | Cc1c(F)ccc2[nH]c(C(=O)N3CCn4ncc(C(=O)NC5(COC(F)F)CC5)c4C3)cc12 [Example 103, N-{1-[(difluoromethoxy)methyl]cyclopropyl}-5-(5-fluoro-4-methyl-1H-indole-2-carbonyl)-4H,5H,6H,7H-pyrazolo[1,5-a]pyrazine-3-carboxamide] | > 10 | > 5.30 | > 6.00 | –
13 | O=C(c1cc2ccccc2[nH]1)N1CCn2ncc(S(=O)(=O)N3CCC(F)(F)CC3)c2C1 [Example 34, 2-{3-[(4,4-difluoropiperidin-1-yl)sulfonyl]-4H,5H,6H,7H-pyrazolo[1,5-a]pyrazine-5-carbonyl}-1H-indole] | > 10 | – | > 6.00 | –
14 | O=C(c1cc2c(Cl)cccc2[nH]1)N1CCn2ncc(C(=O)N3CCC(F)(F)C3)c2C1 [Example 99, 4-chloro-2-[3-(3,3-difluoropyrrolidine-1-carbonyl)-4H,5H,6H,7H-pyrazolo[1,5-a]pyrazine-5-carbonyl]-1H-indole] | > 10 | – | > 6.00 | –
15 | O=C(c1cc2c(Cl)cc(F)cc2[nH]1)N1CCn2ncc(C(=O)N3CCC(F)(F)C3)c2C1 [Example 140, 4-chloro-2-[3-(3,3-difluoropyrrolidine-1-carbonyl)-4H,5H,6H,7H-pyrazolo[1,5-a]pyrazine-5-carbonyl]-6-fluoro-1H-indole] | > 10 | – | > 6.00 | –
